Columns and labels:
[1] = test system: HSL phosphorylation; assay: HSL phosphorylation by western blot in SARS-CoV-2-infected Vero E6 cells; assay type: cell-based, African green monkey; details: 5 μM or 50 μM
[2] = test system: HSL phosphorylation; assay: HSL phosphorylation by western blot in IAV-infected A549 cells; assay type: cell-based, human; details: 5 μM or 50 μM
[3] = In vivo toxicity in hamsters (body weight, gross and histopathological organ changes); details: 80 mg kg^-1 d^-1 atglistatin and 2.5 mg kg^-1 d^-1 remdesivir, singly or in combination
Experimental: Three groups of 3 hamsters were treated intraperitoneally with 20, 40, and 80 mg kg^-1 d^-1 of atglistatin prepared in a 100 μL vehicle [50% PEG400 in water (vol/vol)] Bid with a 12 h interval for four and a half consecutive days, respectively (Table S10). One group of 3 control anesthetized hamsters was administered intraperitoneally with 100 μL vehicle Bid with a 12 h interval for four and a half consecutive days (Table S10).
Histopathological changes in lungs, liver, kidney, heart, and spleen from the experimental mice or hamsters in each experimental group were determined as described elsewhere.^35 Briefly, each sample from the mice or hamsters in each experimental group was fixed in sufficient 10% neutral formalin at 20°C for 3-4 days, washed in tap water, then trimmed, and thereafter processed in the automatic embedding machine for the dehydration and paraffin embedment. Tissue sections, prepared on slides at a thickness of 3 μm by a microtome, were used for hematoxylin and eosin (H&E) staining or IHC as described below. H&E stained sections were observed under light microscopy. The morphological changes to lung, liver, kidney, heart, and spleen tissues were reviewed in a blinded manner as previous described.^35

[4] = test system: SARS-CoV-2 (KCDC03); assay: In vitro antiviral activity against SARS-CoV-2 in Vero E6 cells (CCIF viral yield, RT-qPCR); assay type: cell-based; details: SARS-CoV-2; FFA-deprived condition in lipase inhibitor-treated cells; 100 µM
[5] = test system: Influenza A virus (H1N1) (PR8); details: IAV; FFA-deprived condition in lipase inhibitor-treated cells; 100 µM

| Compound | viral-mediated HSL phosphorylation [1] | viral-mediated HSL phosphorylation [2] | toxicity, including body weight loss [3] | virus replication on FFA supplementation [4] | virus replication on FFA supplementation [5] |
| --- | --- | --- | --- | --- | --- |
| O=S(=O)(NCCNC/C=C/c1ccc(Br)cc1)c1cccc2cnccc12 [H89] | prevented viral-mediated HSL phosphorylation | prevented viral-mediated HSL phosphorylation | – | – | – |
| CCC(CC)COC(=O)[C@H](C)N[P@](=O)(OC[C@H]1O[C@@](C#N)(c2ccc3c(N)ncnn23)[C@H](O)[C@@H]1O)Oc1ccccc1 [remdesivir] | – | – | no toxicity | – | – |
| CCCCCCCC/C=C\CCCCCCCC(=O)O [OA, oleic acid] | – | – | – | rescue of replication | rescue of replication |
| CCCCC/C=C\C/C=C\CCCCCCCC(=O)O [LA, linoleic acid] | – | – | – | rescue of replication | rescue of replication |
| CCCCCCCCCCCCCCCC(=O)O [PA, palmitic acid] | – | – | – | rescue of replication | rescue of replication |

— article PMC9575645 (Signal Transduction and Targeted Therapy, 2022)
